The record followed here is patent US11629171B2, “Beta-hairpin peptidomimetics” (POLYPHOR AG, priority 2017, dated 2023).

Holding throughout (format): cell-based
Data set [1] concerns Klebsiella pneumoniae 968733. Particulars: 968733. As for the experimental part: (§1) The in vitro antimicrobial activities of the peptides were determined in 96-well plates (Greiner, polystyrene) by the standard CLSI broth microdilution method (Clinical and Laboratory Standards Institute 2014. Performance standards for antimicrobial susceptibility testing, 24th informational supplement. Approved standard CLSI M100-S24; Clinical and Laboratory Standards Institute, Wayne, Pa.). The following microorganisms were used to determine antibiotic activity of the peptides: Escherichia coli ATCC 25922, Klebsiella pneumoniae SSI #3010^a), Acinetobacter baumannii DSM 30008, Pseudomonas aeruginosa ATCC 27853 and the clinical isolates Escherichia coli 926415^b), Klebsiella pneumoniae 968733^b), Acinetobacter baumannii 872842^b), Enterobacter cloacae 848840^b) and Escherichia coli MCR-1 Af45^c). Before preparation of inocula, Escherichia coli MCR-1 Af45 was subcultured on Mueller-Hinton II (MH-cation adjusted) agar containing 2 μg/mL colistin. ^a) Obtained from Statens Serum Institut (SSI), Copenhagen, Denmark^b) Obtained from International Health Management Associates, Inc. (IHMA Europe Sàrl), Epalinges, Switzerland^c) Obtained from Prof. Patrice Nordmann, University of Fribourg, Fribourg, Switzerland
(§2) Inocula of the microorganisms were diluted into Mueller-Hinton II (MH-cation adjusted) broth and compared with a 0.5 McFarland standard to give appr. 10^6 colony forming units (CFU)/mL. Aliquots (90 μL) of inoculum were added to 10 μL of MH-II broth+P-80 (Polysorbate 80, 0.002% final concentration, v/v) containing the peptide in serial two-fold dilutions. Antimicrobial activities of the peptides were expressed as the minimal inhibitory concentration (MIC) in μg/mL at which no visible growth was observed after 18-20 hours of incubation at 35° C.

Data set [2] has as its system Klebsiella pneumoniae SSI #3010. The following applies: SSI #3010. The procedure:
as §1, §2

Data set [3] concerns Enterobacter cloacae 848840. The following applies: 848840. The procedure: as §1, §2
In data set [4] the test system is Escherichia coli ATCC 25922. The following applies: ATCC 25922. As for the experimental part:
as §1, §2

For another data set, the system named is Escherichia coli 926415. The following applies: 926415. The procedure:
as §1, §2

Data set [5] relates to Acinetobacter baumannii DSM 30008. The following applies: DSM 30008. The procedure:
as §1, §2

In data set [6] the test system is Pseudomonas aeruginosa ATCC 27853. Particulars: ATCC 27853. The procedure:
as §1, §2

For data set [7], the system named is Acinetobacter baumannii 872842. The following applies: 872842. The procedure: as §1, §2
Data set [8] concerns human red blood cells (hRBC). Put plainly: Hemolysis. The following applies: red cells of human, 1 h, 200. The essentials: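 Washed fresh human RBC (20% v/v) incubated with peptide at 200 μg/mL for 1 h at 37° C with shaking. Supernatant OD540 measured after dilution, blank corrected; percent hemolysis = OD540 peptide / OD540 of 2% Triton X-100 lysis × 100, PBS with 10% water as 0%.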

The structures appear in SMILES notation. Converted amounts (≈) assume the structure as drawn. Where a SMILES comes first, the peptide text is derived from it. Bridges are numbered along the chain shown (N, C = ends). Roman numbers before positions name the chains, in order. [ ]: non-standard residue; d: D form. Thr(ol) = C[C@@H](O)[C@H](N)CO; Tle = CC(C)(C)[C@H](N)C(=O)O; Hiv = CC(C)[C@H](O)C(=O)O; dDab = NCC[C@@H](N)C(=O)O; Dab = NCC[C@H](N)C(=O)O; Dap = NC[C@H](N)C(=O)O; Mpa = O=C(O)CCS

By MIC is commonly meant the least concentration at which growth counts as inhibited. Low readings indicate inhibition by little substance, high ones a need for much substance. As for `CC(C)C[C@@H]1NC(=O)[C@@H](CC(C)C)NC(=O)[C@H](CCN)NC(=O)[C@@H](NC(=O)[C@H](CN)NC(=O)[C@@H](NC(=O)[C@H](CCN)NC(=O)CC[C@@H]2NC(=O)[C@H](CN)NC(=O)[C@H](Cc3ccc(O)cc3)NC(=O)[C@H]([C@@H](C)O)NC(=O)[C@H](C(C)C)NC(=O)CCSSC[C@@H](C(N)=O)NC(=O)[C@H](CO)NC(=O)[C@H](C)NC(=O)[C@H](C(C)(C)C)NC(=O)[C@H](CO)NC(=O)[C@H](Cc3c[nH]c4ccccc34)NC(=O)[C@H](CO)NC(=O)[C@@H](CCN)NC2=O)[C@@H](C)O)CCNC(=O)[C@H]([C@@H](C)O)NC(=O)[C@H](CCN)NC(=O)[C@H](CCN)NC1=O` [Ex. 245] (I: [Mpa]VTY[Dap]E[dDab]SWS[Tle]ASC-NH2 / II: [Dab]T[Dap][Dab][Dab][dL]L[Dab][Dab]T; disulfide I:1-I:14; amide I:6-II:N; lactam II:4-II:C), the MIC is 0.25 µg/mL (≈ 0.0994 µM) in [1]; 0.125 µg/mL (≈ 0.0497 µM) in data set [2]; 0.125 µg/mL (≈ 0.0497 µM) in data set [3]; 0.0625 µg/mL (≈ 0.0249 µM) in [4]; 0.125 µg/mL (≈ 0.0497 µM) against Escherichia coli 926415; 0.03125 µg/mL (≈ 0.0124 µM) in data set [5]. Moreover, the MIC worked out at 0.25 µg/mL (≈ 0.0994 µM) in data set [6] and 0.0625 µg/mL (≈ 0.0249 µM) in [7]. In addition, the “Hemolysis at 200 μg/mL” value in [8] was determined as 1%.
Consider `CC(C)C[C@@H]1NC(=O)[C@@H](CC(C)C)NC(=O)[C@H](CCN)NC(=O)[C@@H](NC(=O)[C@H](CN)NC(=O)[C@@H](NC(=O)[C@H](CCN)NC(=O)CC[C@@H]2NC(=O)[C@@H](CCN)NC(=O)CNC(=O)[C@@H](NC(=O)[C@H](Cc3ccc(O)cc3)NC(=O)[C@@H](NC(=O)[C@@H](O)C(C)C)[C@@H](C)O)CSSC[C@@H](C(=O)N[C@H](C(=O)N[C@@H](C)C(=O)N[C@H](CO)[C@@H](C)O)C(C)(C)C)NC(=O)[C@H](Cc3c[nH]c4ccccc34)NC2=O)[C@@H](C)O)CCNC(=O)[C@H]([C@@H](C)O)NC(=O)[C@H](CCN)NC(=O)[C@H](CCN)NC1=O` [Ex. 213] (I: H-[Hiv]TYCG[dDab]EWC[Tle]A[Thr(ol)] / II: [Dab]T[Dap][Dab][Dab][dL]L[Dab][Dab]T; disulfide I:4-I:9; amide I:7-II:N; lactam II:4-II:C), for which the MIC in data set [1] was found to be 0.5 µg/mL (≈ 0.215 µM); in data set [2], 0.125 µg/mL (≈ 0.0537 µM); in data set [3] it was 1 µg/mL (≈ 0.43 µM); in [4], 0.125 µg/mL (≈ 0.0537 µM); with Escherichia coli 926415, 0.5 µg/mL (≈ 0.215 µM); in [5], 0.0625 µg/mL (≈ 0.0268 µM). Also, the MIC in [6] was 0.25 µg/mL (≈ 0.107 µM); in data set [7], 0.125 µg/mL (≈ 0.0537 µM). Moreover, the “Hemolysis at 200 μg/mL” value in data set [8] is on record as under 1%.
Turning to `CC(C)C[C@@H]1NC(=O)[C@@H](CC(C)C)NC(=O)[C@H](CCN)NC(=O)[C@@H](NC(=O)[C@H](CCN)NC(=O)[C@@H](NC(=O)[C@H](CCN)NC(=O)CC[C@@H]2NC(=O)[C@@H](NC(=O)[C@H](Cc3ccc(O)cc3)NC(=O)[C@H](CCC(=O)O)NC(=O)[C@@H](O)C(C)C)CSSC[C@@H](C(=O)N[C@H](C(=O)N[C@@H](CCCCN)C(=O)N[C@H](CO)[C@@H](C)O)C(C)(C)C)NC(=O)[C@H](Cc3c[nH]c4ccccc34)NC(=O)[C@H]([C@@H](C)O)NC(=O)[C@@H](CCN)NC2=O)[C@@H](C)O)CCNC(=O)[C@H]([C@@H](C)O)NC(=O)[C@H](CCN)NC(=O)[C@H](CCN)NC1=O` [Ex. 189] (I: H-[Hiv]EYCE[dDab]TWC[Tle]K[Thr(ol)] / II: [Dab]T[Dab][Dab][Dab][dL]L[Dab][Dab]T; disulfide I:4-I:9; amide I:5-II:N; lactam II:4-II:C), the minimum inhibitory concentration (MIC) in data set [1] turned out to be 4 µg/mL (≈ 1.62 µM); in data set [2] it was 0.125 µg/mL (≈ 0.0506 µM); in [3], 0.25 µg/mL (≈ 0.101 µM); in data set [4], 0.125 µg/mL (≈ 0.0506 µM); in the data set with Escherichia coli 926415, 1 µg/mL (≈ 0.405 µM); in [5], 0.125 µg/mL (≈ 0.0506 µM). Besides, the figures for the minimal inhibitory concentration (MIC) in data set [6] and in [7] were 0.25 µg/mL (≈ 0.101 µM) and 0.5 µg/mL (≈ 0.202 µM), respectively. The “Hemolysis at 200 μg/mL” value in [8] is listed as under 1%.
Turning to `CC(=O)N[C@H](C(=O)N[C@H]1CSSC[C@@H](C(N)=O)NC(=O)[C@H](C(C)(C)C)NC(=O)[C@H](CO)NC(=O)[C@H](Cc2c[nH]c3ccccc23)NC(=O)[C@H](CCN)NC(=O)[C@@H](CCN)NC(=O)[C@H](CCC(=O)N[C@@H](CCN)C(=O)N[C@H](C(=O)N[C@@H](CN)C(=O)N[C@H]2CCNC(=O)[C@H]([C@@H](C)O)NC(=O)[C@H](CCN)NC(=O)[C@H](CCN)NC(=O)[C@H](CC(C)C)NC(=O)[C@@H](CC(C)C)NC(=O)[C@H](CCN)NC2=O)[C@@H](C)O)NC(=O)[C@H](CN)NC(=O)[C@H](Cc2ccc(O)cc2)NC1=O)C(C)C` [Example 10] (I: Ac-VCY[Dap]E[dDab][Dab]WS[Tle]C-NH2 / II: [Dab]T[Dap][Dab][Dab][dL]L[Dab][Dab]T; disulfide I:2-I:11; amide I:5-II:N; lactam II:4-II:C), the minimum inhibitory concentration (MIC) stood at 0.5 µg/mL (≈ 0.215 µM) in data set [1]; 0.25 µg/mL (≈ 0.108 µM) in [2]; 0.25 µg/mL (≈ 0.108 µM) in [3]; 0.25 µg/mL (≈ 0.108 µM) in data set [4]; 8 µg/mL (≈ 3.44 µM) against Escherichia coli 926415; 0.125 µg/mL (≈ 0.0538 µM) in [5]. Also, the minimal inhibitory concentration (MIC) in data set [6] and in [7] was 0.125 µg/mL (≈ 0.0538 µM) throughout. Moreover, the “Hemolysis at 200 μg/mL” value in [8] is under 1%.
As for `CC(=O)N[C@H](C(=O)N[C@H]1CSSC[C@@H](C(=O)O)NC(=O)[C@H](C(C)C)NC(=O)[C@H](CO)NC(=O)[C@H](Cc2c[nH]c3ccccc23)NC(=O)[C@H](CO)NC(=O)[C@@H](CCN)NC(=O)[C@H](CCC(=O)N[C@@H](CCN)C(=O)N[C@H](C(=O)N[C@@H](CN)C(=O)N[C@H]2CCNC(=O)[C@H]([C@@H](C)O)NC(=O)[C@H](CCN)NC(=O)[C@H](CCN)NC(=O)[C@H](CC(C)C)NC(=O)[C@@H](CC(C)C)NC(=O)[C@H](CCN)NC2=O)[C@@H](C)O)NC(=O)[C@H](CCN)NC(=O)[C@H](Cc2ccc(O)cc2)NC1=O)C(C)C` [Ex. 384] (I: Ac-VCY[Dab]E[dDab]SWSVC-OH / II: [Dab]T[Dap][Dab][Dab][dL]L[Dab][Dab]T; disulfide I:2-I:11; amide I:5-II:N; lactam II:4-II:C), the minimum inhibitory concentration (MIC) is over 8 µg/mL in [1], 2 µg/mL (≈ 0.865 µM) in data set [3], 4 µg/mL (≈ 1.73 µM) in the data set with Escherichia coli 926415 and 2 µg/mL (≈ 0.865 µM) in [7]. The “Klebsiella pneumoniae SSI #3010 MIC” value in data set [2] is 0.25 µg/mL. Also, the “Escherichia coli ATCC 25922 MIC” value in data set [4] stood at 0.125 µg/mL. Also, in data set [5], the “Acinetobacter baumannii DSM 30008 MIC” value was 1 µg/mL. The “Pseudomonas aeruginosa ATCC 27853 MIC” value in [6] came to 0.5 µg/mL. In [8], the “Hemolysis at 200 μg/mL” value is given as under 1%.
For `CC(C)C[C@@H]1NC(=O)[C@@H](CC(C)C)NC(=O)[C@H](CCN)NC(=O)[C@@H](NC(=O)[C@H](CN)NC(=O)[C@@H](NC(=O)[C@H](CCN)NC(=O)CC[C@H]2NC(=O)[C@@H](CCN)NC(=O)CNC(=O)[C@@H](NC(=O)[C@H](Cc3ccc(O)cc3)NC(=O)[C@@H](NC(=O)[C@@H](O)C(C)C)[C@@H](C)O)CSSC[C@@H](C(=O)N[C@H](C(=O)N[C@@H](C)C(=O)N[C@H](CO)[C@@H](C)O)C(C)(C)C)NC(=O)[C@H](Cc3c[nH]c4ccccc34)NC2=O)[C@@H](C)O)CCNC(=O)[C@H]([C@@H](C)O)NC(=O)[C@H](CCN)NC(=O)[C@H](CCN)NC1=O` [Ex. 214] (I: H-[Hiv]TYCG[dDab][dE]WC[Tle]A[Thr(ol)] / II: [Dab]T[Dap][Dab][Dab][dL]L[Dab][Dab]T; disulfide I:4-I:9; amide I:7-II:N; lactam II:4-II:C), the MIC in data set [1] turned out to be 0.5 µg/mL (≈ 0.215 µM); in [2], 0.25 µg/mL (≈ 0.107 µM); in data set [3], 8 µg/mL (≈ 3.44 µM); in data set [4], 0.0625 µg/mL (≈ 0.0268 µM); in the data set on Escherichia coli 926415 it was 0.5 µg/mL (≈ 0.215 µM); in data set [5], 0.125 µg/mL (≈ 0.0537 µM). The minimal inhibitory concentration (MIC) in data set [6] and in [7] was 0.5 µg/mL (≈ 0.215 µM) in each case. Also, the “Hemolysis at 200 μg/mL” value in [8] is under 1%.
